Broadly, the Aqueous solubility is the dissolved amount per volume that the medium holds. Low readings indicate a poorly soluble substance, high ones a readily soluble substance. Usually EC50 stands for the concentration giving half of the maximal effect. Higher therefore signals a less potent agent. Broadly, the solubility is how much of the substance goes into solution per volume.

Data set [1] in a line: Metabolic stability with human liver microsomes. To be noted: pooled human liver microsomes, 1 μM compound, 37° C.; for half-life at 1 μM: pH 7.6, read-out: t1/2 INVITRO. The class given is in vitro ADME. As for the experimental part:
Assay for the Determination of Metabolic Stability with Human Liver Microsomes
The metabolic degradation of the test compound is assayed at 37° C. with pooled human liver microsomes. The final incubation volume of 100 μl per time point contains TRIS buffer pH 7.6 (0.1 M), magnesium chloride (5 mM), microsomal protein (1 mg/ml) and the test compound at a final concentration of 1 μM. Following a short preincubation period at 37° C., the reactions are initiated by addition of beta-nicotinamide adenine dinucleotide phosphate, reduced form (NADPH, 1 mM) and terminated by transferring an aliquot into acetonitrile after different time points. Additionally, the NADPH-independent degradation is monitored in incubations without NADPH, terminated at the last time point. The [%] remaining test compound after NADPH independent incubation is reflected by the parameter c(control) (metabolic stability). The quenched incubations are pelleted by centrifugation (10,000 g, 5 min) An aliquot of the supernatant is assayed by LC-MS/MS for the amount of parent compound.
The half-life (t1/2 INVITRO) is determined by the slope of the semilogarithmic plot of the concentration-time profile. The intrinsic clearance (CL_[…]) is calculated by considering the amount of protein in the incubation: CL_[…][μl/min/mg protein]=(ln 2/(half-life[min]*protein content[mg/ml]))*1,000.
The half-life (t1/2 INVITRO) values of selected compounds in the metabolic stability assay human liver microsomes described above are listed in Table 3.
A general note: Liver microsomes are vesicles of endoplasmic reticulum, rich in cytochrome P450 enzymes.

For another data set, the system named is human hepatocytes. Kind of data set: Metabolic stability with human hepatocytes. The class given is in vitro ADME. The settings on record: 1 μM compound, well stirred model. As for the experimental part: Assay for the Determination of Metabolic Stability with Human Hepatocytes
The metabolic degradation of the test compound is assayed in a human hepatocyte suspension. Human hepatocytes (typically cryopreserved) are incubated in an appropriate buffer system (e.g. Dulbecco's modified eagle medium plus 3.5 μg glucagon/500 mL, 2.5 mg insulin/500 mL and 3.75 mg/500 mL hydrocortison) containing 5% species serum. Following a (typically) 30 min preincubation in an incubator (37° C., 10% CO2), 5 μl of test compound solution (80 μM; from 2 mM stock solution in DMSO diluted 1:25 with medium) are added into 395 μl hepatocyte suspension (cell density in the range 0.25-5*10^6 cells/mL, typically 1*10^6 cells/mL; final concentration of test compound 1 μM, final DMSO concentration 0.05%). The cells are incubated for six hours (incubator, orbital shaker) and samples (25 μl) are taken at 0, 0.5, 1, 2, 4 and 6 hours. Samples are transferred into acetonitrile and pelleted by centrifugation (5 min) The supernatant is transferred to a new 96-deepwell plate, evaporated under nitrogen and resuspended. The decline of parent compound is analyzed by LC-MS/MS.
The intrinsic clearance CL_[…] is calculated as follows: CL_[…]=Dose/AUC=(Co/CD)/(AUD+clast/k)*1,000/60 (Co: initial concentration in the incubation [μM], CD: cell density of vital cells [10^6 cells/mL], AUD: area under the data [μM*h], clast: concentration of last data point [μM], k: slope of the regression line for parent decline [h^−1])
The calculated in vitro hepatic intrinsic clearance Q h can be scaled up to the intrinsic in vivo hepatic clearance and used to predict hepatic in vivo blood clearance (CL) by the use of a liver model (well stirred model): CL_[…]_INVIVO[ml/min/kg]=(CL_[…][μL/min/10^6cells]*hepatocellularity[10^6cells/g liver]*liver factor[g/kg bodyweight])/1,000 CL[ml/min/kg]=CL_[…]_INVIVO[ml/min/kg]*hepatic blood flow [ml/min/kg]/(CL_[…]_INVIVO[ml/min/kg]+hepatic blood flow[ml/min/kg]) Qh[%]=CL[ml/min/kg]/hepatic blood flow[ml/min/kg]) (Hepatocellularity, human: 120*10^6 cells/g liver; liver factor, human: 25.7 g/kg bodyweight; blood flow, human: 21 ml/(min*kg)) Based on this assay.
The calculated in vitro hepatic intrinsic clearance values of selected compounds in the metabolic stability assay with human hepatocytes described above are listed in Table 4.

The nature of another data set: Aqueous solubility. Type of data set: physicochemical. The settings on record: McIlvaine buffer pH 6.8, 2.5% DMSO; for Aqueous solubility: 24 h; for solubility at 24 h: McIlvaine buffer with 2.5% DMSO, aqueous buffer, kinetic from dmso stock. As for the experimental part: Assay for Determination of Aqueous Solubility
Starting from a 10 mM DMSO stock solution, aliquots are diluted with acetonitrile/water (1/1) and McIlvaine buffer pH 6.8, respectively. After 24 h of shaking, the solutions or suspensions are filtered and analyzed by LC-UV. The amount dissolved in buffer is compared to the amount dissolved in the acetonitrile/water (1/1) solution. Solubility is measured from 0.001 to 0.125 mg/ml at a DMSO concentration of 2.5%. If more than 90% of the compound is dissolved in buffer, the value is marked with “>”.

In another data set the target is neutrophil elastase (Homo sapiens (Human), UniProt P08246). Kind of data set: Neutrophil elastase inhibitory activity in human plasma. The class given is biochemical. To be noted: zymosan-stimulated human plasma, substrate MeOSuc-Ala-Ala-Pro-Val-AMC. How it is done: Assay for the Determination of Neutrophil Elastase Inhibitory Activity in Human Plasma
neutrophil elastase, sequence (P08246 30-267): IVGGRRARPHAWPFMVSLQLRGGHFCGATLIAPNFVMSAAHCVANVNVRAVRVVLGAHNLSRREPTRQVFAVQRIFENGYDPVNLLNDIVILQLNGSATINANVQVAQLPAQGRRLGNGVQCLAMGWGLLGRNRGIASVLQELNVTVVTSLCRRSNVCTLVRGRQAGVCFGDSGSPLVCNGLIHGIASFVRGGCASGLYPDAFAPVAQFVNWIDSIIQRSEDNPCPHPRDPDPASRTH
Citrated blood from human healthy donors is mixed with zymosan suspension and incubated at room temperature. This leads to the stimulation of neutrophils and the release of neutrophil elastase into the plasma. The stimulated blood is centrifuged to generate the neutrophil elastase enriched plasma.
Preparation of Zymosan Working Solution:
• A single 45 ml blood sample is taken into a 50 ml tube containing citrate (3.13%, 5 mL) and the tube is gently inverted 4 times. • Immediately after blood sampling, zymosan working solution (5 mL) is added. • After the addition of zymosan working solution, the tubes are capped, mixed gently and incubated at 22° C. for 15 min on a shaker at 20 rpm. • Make 10 ml aliquots after the incubation time. • Centrifuge the 15 ml tubes at 800 g for 15 min at 4° C. in a Jouan centrifuge. • Harvest the plasma and make 1-5 ml aliquots. • Store the plasma at −80° C.
Various concentrations of the neutrophil elastase inhibitor are incubated with plasma. Subsequently, the enzyme activity is measured using the fluorogenic substrate MeOSuc-Ala-Ala-Pro-Val-AMC (Bachem Cat. No. I-1270, substrate concentration: 250 μM, pH 7.5, 25 mM TRIS buffer, 250 mM NaCl) in analogous fashion as described for the human neutrophil assay. A dose response curve is generated to calculate the EC50 of the inhibitor. The analysis of the data is performed by the calculation of the percentage of fluorescence in the presence of the test compound compared to the fluorescence of the vehicle control after subtracting the background fluorescence: An inhibitor of the neutrophil elastase enzyme will give values between 100% control (no inhibition) and 0% control (complete inhibition).

Molecules are shown by their SMILES. Converted amounts (≈) assume the structure as drawn.

Regarding `CC(=O)C1=C(C)N(c2cccc(C(F)(F)F)c2)C(=O)N(C)C1c1ccc(C#N)cc1C(=O)NCC#N` (centres unmarked) [Example 1.6], the “t1/2 INVITRO” value in data set [1] is 2.17 h. In addition, the Qh in the data set on human hepatocytes is listed as 25%. The Aqueous solubility in the data set “Aqueous solubility” came out at 70 µg/mL. In addition, at neutrophil elastase, the midpoint of the response, the EC50, lay at 1 nM.
In the case of `CC(=O)C1=C(C)N(c2cccc(C(F)(F)F)c2)C(=O)N(C)C1c1ccc(C#N)cc1C(=O)NC1CC1` (centres unmarked) [Example 1.8], the “t1/2 INVITRO” value in data set [1] stood at 1.83 h. Moreover, the Qh in the data set on human hepatocytes is 22%. In “Aqueous solubility”, this compound registered an Aqueous solubility of 76 µg/mL. On neutrophil elastase, this compound gave an EC50 of 1 nM.
In the case of `CC(=O)C1=C(C)N(c2cccc(C(F)(F)F)c2)C(=O)N(C)C1c1ccc(C#N)cc1C(=O)NCCF` (centres unmarked) [Example 1.10], the “t1/2 INVITRO” value in data set [1] was greater than 2.17 h. The Qh with human hepatocytes is reported as 27%. In addition, the Aqueous solubility in “Aqueous solubility” is 66 µg/mL. On neutrophil elastase, this compound gave an EC50 of 1 nM.
Turning to `CC(=O)C1=C(C)N(c2cccc(C(F)(F)F)c2)C(=O)N(C)C1c1ccc(C#N)cc1C(=O)NCC(C)(C)O` (centres unmarked) [Example 1.22], the half-life at 1 μM in data set [1] was greater than 2.17 h. This compound also had a Qh with human hepatocytes of 15%. The compound also registered a solubility at 24 h in the data set “Aqueous solubility” of 65 µg/mL (≈ 123 µM). Further, at neutrophil elastase, the EC50 came to 2 nM.
The corresponding values for `CC(=O)C1=C(C)N(c2cccc(C(F)(F)F)c2)C(=O)N(C)C1c1ccc(C#N)cc1C(=O)N1CCn2ncnc2C1` (centres unmarked) [Example 1.73] are 2 h, 19%, 73 µg/mL (≈ 130 µM) and 2 nM.
With `CNC(=O)c1cc(C#N)ccc1[C@@H]1C(C(C)=O)=C(C)N(c2cccc(C(F)(F)F)c2)C(=O)N1C` [Example 13.1], the “t1/2 INVITRO” value in data set [1] was greater than 2.17 h. This compound also came in with a Qh in the data set with human hepatocytes of 16%. In “Aqueous solubility”, this compound gave an Aqueous solubility of 51 µg/mL. Moreover, at neutrophil elastase, the EC50 turned out to be 1 nM.
In the case of `CC(=O)C1=C(C)N(c2cccc(C(F)(F)F)c2)C(=O)N(C)[C@@H]1c1ccc(C#N)cc1-c1ccc(=O)n(C)c1` [Example 16, 4-[(R)-5-Acetyl-3,6-dimethyl-2-oxo-1-(3-trifluoromethyl-phenyl)-1,2,3,4-tetrahydro-pyrimidin-4-yl]-3-(1-methyl-6-oxo-1,6-dihydro-pyridin-3-yl)-benzonitrile], the half-life at 1 μM in data set [1] is greater than 2.17 h. In the data set on human hepatocytes, the Qh was 5%. This compound gave a solubility at 24 h in the data set “Aqueous solubility” of 73 µg/mL (≈ 140 µM). Moreover, the EC50 at neutrophil elastase worked out at 1 nM.
For `CC(=O)C1=C(C)N(c2cccc(C(F)(F)F)c2)C(=O)N(C)[C@@H]1c1ccc(C#N)cc1-c1ccn(C)c(=O)c1` [Example 17, 4-[(R)-5-Acetyl-3,6-dimethyl-2-oxo-1-(3-trifluoromethyl-phenyl)-1,2,3,4-tetrahydro-pyrimidin-4-yl]-3-(1-methyl-2-oxo-1,2-dihydro-pyridin-4-yl)-benzonitrile], in that order: greater than 2.17 h, 6%, 62 µg/mL (≈ 119 µM) and 5 nM.
